# Tests used:
# GBM 031810 cells = experiment: MTT growth inhibition, primary GBM-derived neurosphere culture GBM 031810; format: cell-based; settings: Homo sapiens, Table 3, 48-96 h treatment, read-out: GI50 in vitro values, glioma GBM 031810
# Experimental: (§1) Cell culture media were supplemented with 4 mM glutamine (Lonza code BE17-605E), 100 μg/mL gentamicin (Lonza code 17-5182), and penicillin-streptomycin (200 units/ml and 200 μg/ml) (Lonza code 17-602E). Primary GBM-derived neurosphere cultures from a patient undergoing surgical debulking were established using previously described methods. Briefly, resected tumor tissue was minced with a sterile scalpel and dissociated in 3 mL of neurobasal (NB) media containing 100 U/mL of collagenase (Life Technologies™) for 30 minutes at 37° C. Dissociated tissue was then vortexed and filtered using a sterile 70 um nylon Falcon™ cell strainer (Corning™). […]
# (§2) Compound 4l was evaluated for in vitro growth inhibition against a panel of cancer cell lines, including U373, U251, U87, T98G, human GBM, and A549 NSCLC. […] Compound 4l was also evaluated for in vitro growth inhibition against the apoptosis-sensitive tumor model Hs683 anaplastic oligodendroglioma as a reference.
# H1993 cells = experiment: Combination treatment with paclitaxel, CellTiter-Glo viability, Bliss Independence; format: cell-based, human; settings: 96 h, FIG. 2
# Experimental: Spirodienone 4l was evaluated against patient-derived NSCLC cell line H1993 and its drug-resistant variant, H2073. The patient-derived NSCLC cell line […] was obtained from a regrown tumor at a primary site after a patient relapsed several months later.
# Paclitaxel (Teva™) was dissolved in polyethoxylated castor oil. Compound 4l was dissolved in DMSO. The compound was diluted to different concentrations in medium. Appropriate numbers of cells (4×10^3 cells per well for H1993, 7×10^3 cells per well for H2073) were seeded into 96-well plates. […] After 96 h, viability of cells was assessed using the CellTiter-Glo® Luminescent Cell Viability Assay (Promega™), according to the manufacturer's instructions. Predicted additivity was calculated based on Bliss Independence, as defined by Exy=Ex+Ey−ExEy, where Exy is the additive effect of drugs x and y as predicted by the individual effects Ex and Ey.
# FIG. 2 and FIG. 3 illustrate the synergism against H1993 cells.
# GBM 090909 cells = experiment: MTT growth inhibition, primary GBM-derived neurosphere culture GBM 090909; format: cell-based; settings: Homo sapiens, Table 3, 48-96 h treatment, read-out: GI50 in vitro values, glioma GBM 090909
# Experimental: as §1, §2
smiles,measurement,setting,value
O=C1C=CC2(C=C1)CCN(C(=O)C(F)(F)F)Cc1c2sc2ccccc12 [Compound 4l],GI50,GBM 031810 cells,8 µM
same,synergism with paclitaxel in antiproliferative action,H1993 cells,synergize with paclitaxel
same,GI50,GBM 090909 cells,7 µM

# From US10414778B2, “Methods for treatment of resistant cancer” (New Mexico Tech University Research Park Corporation, priority 2016, dated 2019)
